Measurements taken from the NIST ThermoML archive (doi:10.1021/je7005538).
“And” between values parts separate entries of the source, which are not always exact repeats. Equal entries are not always repeated.

Assay: xn = mol fraction of the nth substance listed
Conditions: Fluid (supercritical or subcritical phases), Vibrating tube method

Cc1c(C)c2c(c(C)c1O)CC[C@@](C)(CCC[C@H](C)CCC[C@H](C)CCCC(C)C)O2 [(+)-α-tocopherol] + O=C=O
mass density
Conditions	x1 = 0.0004	x1 = 0.00042	x1 = 0.00043	x1 = 0.0005	x1 = 0.00059	x1 = 0.00074	x1 = 0.00081
308.15 K, 10000 kPa	720.4 kg/m3	718.9 kg/m3 and 720.9 kg/m3	720.6 kg/m3	720.3 kg/m3	720.2 kg/m3	721.2 kg/m3	720.9 kg/m3
308.15 K, 15000 kPa	817.8 kg/m3	816.9 kg/m3 and 818.1 kg/m3	818.2 kg/m3	817.9 kg/m3	817.8 kg/m3	818.6 kg/m3	818.7 kg/m3
308.15 K, 20000 kPa	867.2 kg/m3	866.7 kg/m3 and 867.6 kg/m3	867.5 kg/m3	867.4 kg/m3	867.3 kg/m3	868 kg/m3	868.2 kg/m3
308.15 K, 30000 kPa	929.5 kg/m3	929.3 kg/m3 and 929.6 kg/m3	929.6 kg/m3	929.6 kg/m3	929.6 kg/m3	930 kg/m3	930.1 kg/m3
308.15 K, 40000 kPa	971.9 kg/m3	971.9 kg/m3 and 972 kg/m3	972 kg/m3	972 kg/m3	972 kg/m3	972.2 kg/m3	972.3 kg/m3
313.15 K, 10000 kPa	639 kg/m3	639 kg/m3 and 638.8 kg/m3	638.7 kg/m3	639.4 kg/m3	638.9 kg/m3	640 kg/m3	639.8 kg/m3
313.15 K, 15000 kPa	782.3 kg/m3	782.6 kg/m3 and 782.3 kg/m3	782.5 kg/m3	782.8 kg/m3	782.4 kg/m3	783.3 kg/m3	783.1 kg/m3
313.15 K, 20000 kPa	841 kg/m3	841.2 kg/m3 and 840.9 kg/m3	841.2 kg/m3	841.3 kg/m3	841.1 kg/m3	841.7 kg/m3	841.6 kg/m3
313.15 K, 30000 kPa	910.2 kg/m3	910.3 kg/m3 and 910.1 kg/m3	910.3 kg/m3	910.4 kg/m3	910.3 kg/m3	910.7 kg/m3	910.6 kg/m3
313.15 K, 40000 kPa	955.9 kg/m3	955.9 kg/m3 and 955.7 kg/m3	955.9 kg/m3	955.9 kg/m3	956 kg/m3	956.1 kg/m3	956 kg/m3
